From PMC6158189, “A pharmacological probe identifies cystathionine β-synthase as a new negative regulator for ferroptosis” (Cell Death & Disease, 2018)

Experiments:
HEK293T cells [1] = experiment: total Hcys in HEK293T cells (ELISA); format: cell-based; conditions: 5 or 10 μM, 12 h
Description: Fig. 3 The effect of CH004 on the activity of endogenous hCBS in cells. a CH004 dose-dependently elevates the levels of Hcys in HepG2 and HEK293T cells. HepG2 cells or HEK293T cells were incubated with indicated CH004 or DMSO (control) for 12 h. The amount of total Hcys in cells was measured by ELISA using Axis® Homocysteine EIA kit (IBL, AX51301) (“Materials and Methods” section). […] HepG2 cells were treated with indicated DMSO, CH004 or HA for 8 h before the staining with AzMC probe. The amount of the H2S (blue) was quantified and is shown in (c). Bars, 50 μm. Control (CTR), DMSO group (100%). A representative fluorescence image from three independent experiments is shown. Means ± SDS (n = 3). d CH004 elevates Hcys in the peripheral blood of rats. The total Hcys of the blood samples collected from the anesthetized rats at the 75 min time point (Materials and Methods) were quantified by ELISA (see above). Means ± SDS (n = 6).
HepG2 or HEK293T cells were seeded in poly-D-Lys-coated 6-well plates at a density of ∼ 5 × 10^5 cells per well for one day, treated with DMSO or various concentrations of compounds for another 12 h before the collection by scraping or trypsinization. […]

HEK293T cells [2] = experiment: cell cycle distribution (propidium iodide, flow cytometry); format: cell-based; conditions: 3 μM, 12 h
Description: Fig. 4 CH004 arrests the cell cycle at the S phase. a CH004 reduces the cell viability of HEK293T and HepG2 cells. HEK293T or HepG2 cells were treated with indicated concentrations of CH004 for 24 h before the cell number was analyzed using the CellTiter96® Aqueous One Solution Cell Proliferation Assay (Promega, Materials and Methods). The means at each concentration of one representative experiment are shown as percentages of DMSO (control, 100%). Means ± SDs (n = 3). b Overexpression of hCBS or knock-down of hCBS counteracts the growth inhibition exerted by CH004 in HEK293T cells. Indicated HEK293T stable cell lines were treated with the CH004 or DMSO for 24 h. Then, the cell viability was quantified with the CellTiter 96® Aqueous One Solution Cell Proliferation Assay under the standard protocol (Promega). […] The efficacy for CBS overexpression and knock-down in HEK293T cells was determined by Western blotting using an anti-CBS antibody (3E1, 1:2000; Abnova). c CH004 induces cell death in HEK293T and HepG2 cells. […] HEK293T cells were incubated with indicated compounds for 12 h, and the DNA content was quantified with propidium iodide to analyze the cell cycle distribution by flow cytometry (e). The cell cycle distributions for HEK293T-shNT and HEK293T-shCBS cells were accordingly analyzed and are shown in f. […]

`Cn1nc(Cc2ccccc2)nc2c(=O)n(C)c(=O)nc1-2` [CH004, 3-benzyl-1,6-dimethylpyrimido[5,4-e][1,2,4]triazine-5,7(1H,6H)-dione] was tested, and the “increase of Hcys” value (HEK293T cells [1]) was ~ 2 fold and the “increase in cell number in the S phase” value (HEK293T cells [2]) was “more than 20%”.
